# Experimental data as given in patent US20240217946A1, “ANTIDEPRESSANT AND ANXIOLYTIC SUBSTITUTED CINNAMAMIDE COMPOUND” (TASLY PHARMACEUTICAL GROUP CO., LTD., priority 2021, published 2024).
# Columns and labels:
# ICR mice = assay: Elevated plus maze experiment in mice, single administration; format: in vivo
# Method: 50 male ICR mice were randomly divided into 5 groups (a solvent control group, estazolam group, M2 high dosage group, M2 medium dosage group, M2 low dosage group), with 10 mice in each group. The compound M2 high, medium and low dosage groups were intragastrically administered at 20 mg/kg. 10 mg/kg and 5 mg/kg, respectively; the positive drug estazolam was intragastrically administered at 2.5 mg/kg; and the solvent control group was gavaged with an equal volume of solvent. Behavior test was performed in each group 30 min after single administration. The experiments were required to be conducted between 8:00 am and […], and all animals entered the test laboratory on the previous day.
# The laboratory was dimly lit (with the lowest brightness that can distinguish the subtle activities of mice at a distance of 1.5 m) and the brightness was kept constant, with a room temperature of about 20° C., and kept quiet. Before the maze test, each mouse was placed in a 35 cm*10 cm*5 cm plastic box and left to explore freely for 5 min and then quickly placed at the central platform of an elevated plus maze, with its head facing one of the open arms, and the following indexes were recorded upon release. Each mouse was tested for 5 min. Observers observed and recorded animal activities at a distance of 1.5 m. At intervals, the maze was wiped with a wet cloth to remove feces, and then wiped with a dry cloth before a next mouse was tested.
# • (1) The number of open arm entries (OE): the number of entries into any open arm, based on the fact that all four claws of the mouse entered the arm, and a complete exit of one claw from the arm indicated the completion of the entry activity; • (2) open arm time (OT): the time of entering an open arm, with the unit of seconds; • (3) the number of close arm entries (CE): the number of entries into any close arm, based on the fact that all four claws of the mouse entered the arm; • (4) close arm time (CT): the time of entering a close arm, with the unit of seconds; • (5) percentage of open arm time: OT %=OT/(OT+CT)*100%; and • (6) percentage of open arm entries: OE %=OE/(OE+CE)*100%.
# 70 male ICR mice were randomly divided into 7 groups (a solvent control group, estazolam group, compound M2 group, compound II-3 group, compound II-4 group, compound II-5 group, and compound II-10 group), with 10 mice in each group. The dosage of M2 and its four structurally similar compounds was determined as 20 mg/kg according to the experimental results of 3.1: the positive drug estazolam was administered intragastrically at 2.5 mg/kg; and the solvent control group was gavaged with an equal volume of solvent. Behavior test was performed in each group 30 min after single administration. The experiments were required to be conducted between 8:00 am and […], and all animals entered the test laboratory on the previous day.
# The behavioral test method and behavioral observation indexes were the same as those in 3.1.
# (§1) Data was expressed as mean±standard (mean±SD) difference, and statistics of data differences were made by one-way analysis of variance (ANOVA) or nonparametric test, and differences between groups were determined by P<0.05.
# mice [1] = conditions: 10 mg/kg for 7 days; cited from earlier work
# mice [2] = conditions: mouse, in vivo; cited from earlier work
# SD rats = assay: Vogel drinking conflict experiment in rats, single administration; format: in vivo
# Method: 75 male SD rats, with the body weight of 180-220 g, were fed adaptively for 1 week, water deprived for 24 h for training period test. The animals screened to be qualified were randomly divided into 7 groups (a solvent control group, estazolam group, compound M2 group, compound II-3 group, compound II-4 group, compound II-5 group and compound II-10 group) according to their body weight, with 8 rats in each group. […] results of 3.1: the positive drug estazolam was administered intragastrically at 1.24 mg/kg; and the solvent control group was gavaged with an equal volume of solvent. The grouped animals were continued to be water deprived for 24 h and were given a single dose, and tested in a punishment experiment 30 min after the single dose.
# The experiment was carried out in two stages. The first stage is a training stage, in which 24 h after water deprivation, animals were placed in an operation box separately, and were allowed to fully explore until they found the bottle mouth and started to lick water (with an intensity of electric shock being 0 mA), a counter automatically recorded the number of licks within 3 min, and the animals that licked water less than 300 times were eliminated.
# Observation index: the number of water licks of rats in the punishment stage.
# as §1
# mice [3] = conditions: 10 mg/kg continuously for 7 days; cited from earlier work
# [4] = comparative study (Table 13), 20 mg/kg i.g., 30 min after single administration
smiles,measurement,setting,value
O=C(/C=C/c1cc2c(c(C(F)(F)F)c1)OCO2)N1CCCCC1 [Compound II-10],OE %,ICR mice; [4],50.00 ± 10.23 %
same,OT %,ICR mice; [4],52.08 ± 12.25 %
same,anxiolytic activity in elevated plus maze vs solvent control group,"ICR mice; comparative study, single intragastric administration of 20 mg/kg",significant anxiolytic activity
same,immobility time of tail suspension in mice,mice [1],significantly shorten the immobility time
same,immobility time of forced swimming in mice,mice [2],significantly shorten the immobility time
same,Number of times of drinking water,"SD rats; 10 mg/kg i.g., 30 min after single dose, punishment stage 3 min, n = 8",499.61 ± 133.93
same,anxiolytic activity in drinking conflict experiment vs solvent control group,SD rats; single intragastric administration of 20 mg/kg,significant anxiolytic activity
same,"reserpine-induced body temperature decrease and akinesia in mice, degree of eye closure",mice [3],significantly antagonizing
